Patent US6737417B2, “Compounds with hydroxycarbonyl-halogenoalkyl side chain” (Chugai Seiyaku Kabushiki Kaisha, priority 1999, dated 2004)

System: ovariectomized mice administered with 17β-estradiol
Experiment: Anti-estrogenic activity (oral administration): inhibition of estradiol-induced increase in uterine weight in ovariectomized mice
Type: in vivo
Details: 10 mg/kg p.o., once a day for 3 days, ovariectomized ICR mice given 17β-estradiol-benzoate 0.1 μg/mouse s.c. for 3 days; for inhibition in vivo at 10 mg/kg: po, 24 h
Method: Test compounds were assayed for their oral anti-estrogenic activity in the following manner. In this experiment, the compounds prepared in Examples 5, 12, 14-33, 37 and 38 were used as test compounds. As control compounds, those having the same structures in the parent scaffold as the test compounds were used, that is, ZM189154 for Examples 5 and 27-33 and ICI182780 for Examples 12, 14-26, 37 and 38.
In this experiment, each of the test and control compounds was suspended in 5% arabic gum solution and orally administered for 3 days on a once-a-day basis. After 24 hours from the last administration, the test animals were sacrificed and the uteri were removed and weighed.

| SMILES | inhibition in vivo at 10 mg/kg [%] | also measured |
| --- | --- | --- |
| Cc1cc(O)ccc1-c1ccc2cc(O)ccc2c1CCCCCCCCCCC(CCCC(F)(F)C(F)(F)F)C(=O)O (centres unmarked) [Example 29, 12-[6-hydroxy-2-(4-hydroxy-2-methylphenyl)-naphth-1-yl]-2-(4,4,5,5,5-pentafluoropentyl)dodecanoic Acid] | 80 |  |
| C[C@]12C[C@H](CCCCCCCCCC(CCCC(F)(F)C(F)(F)F)C(=O)O)[C@@H]3c4ccc(O)cc4CC[C@H]3[C@@H]1CC[C@@H]2O (stereo partly drawn) [Example 24, 11-(3,17β-dihydroxyestra-1,3,5(10)-trien-11β-yl)-2-(4,4,5,5,5-pentafluoropentyl)undecanoic Acid] | 98 |  |
| C[C@]12CC[C@@H]3c4ccc(O)cc4C[C@@H](CCCCCCCC[C@H](CCCC(F)(F)C(F)(F)C(F)(F)C(F)(F)F)C(=O)O)[C@H]3[C@@H]1CC[C@@H]2O [Example 37, (2R)-10-(3,17β-dihydroxyestra-1,3,5(10)-trien-7α-yl)-2-(4,4,5,5,6,6,7,7,7-nonafluoroheptyl)decanoic Acid] | 101 |  |
| O=C(O)C(CCCCCCCCCCc1c(-c2ccc(O)cc2)ccc2cc(O)ccc12)CCCC(F)(F)C(F)(F)F (centres unmarked) [Example 27, 12-[6-hydroxy-2-(4-hydroxyphenyl)naphth-1-yl]-2-(4,4,5,5,5-pentafluoropentyl)dodecanoic Acid] | 64 |  |
| C[C@]12CC[C@@H]3c4ccc(O)cc4C[C@@H](CCCCCCCCC[S+]([O-])CCCC(F)(F)C(F)(F)F)[C@H]3[C@@H]1CC[C@@H]2O (some centres unmarked) [ICI182780, reference compound] | 51 |  |
| C[C@]12C[C@H](CCCCCCCCC(CCC(F)(F)C(F)(F)C(F)(F)C(F)(F)F)C(=O)O)[C@@H]3c4ccc(O)cc4CC[C@H]3[C@@H]1CC[C@@H]2O (stereo partly drawn) [Example 23, 10-(3,17β-dihydroxyestra-1,3,5(10)-trien-11β-yl)-2-(3,3,4,4,5,5,6,6,6-nonafluorohexyl)decanoic Acid] | 98 |  |
| C[C@]12C[C@H](CCCCCCCCCC(CCC(F)(F)C(F)(F)C(F)(F)C(F)(F)F)C(=O)O)[C@@H]3c4ccc(O)cc4CC[C@H]3[C@@H]1CC[C@@H]2O (stereo partly drawn) [Example 20, 11-(3,17β-dihydroxyestra-1,3,5(10)-trien-11β-yl)-2-(3,3,4,4,5,5,6,6,6-nonafluorohexyl)undecanoic Acid] | 94 |  |
| O=C(O)C(CCCCCCCCCc1c(-c2ccc(O)cc2)ccc2cc(O)ccc12)CCC(F)(F)C(F)(F)C(F)(F)C(F)(F)F (centres unmarked) [Example 28, 11-[6-hydroxy-2-(4-hydroxyphenyl)naphth-1-yl]-2-(3,3,4,4,5,5,6,6,6-nonafluorohexyl)undecanoic Acid] | 68 |  |
| O=C(O)C(CCCCCCCCCCc1c(-c2ccc(O)cc2C(F)(F)F)ccc2cc(O)ccc12)CCCC(F)(F)C(F)(F)F (centres unmarked) [Example 32, 12-[6-hydroxy-2-(4-hydroxy-2-trifluoromethylphenyl)naphth-1-yl]-2-(4,4,5,5,5-pentafluoropentyl)-dodecanoic Acid] | 73 |  |
| C[C@]12CC[C@@H]3c4ccc(O)cc4C[C@@H](CCCCCCCCC(CCCCCC(F)(F)C(F)(F)F)C(=O)O)[C@H]3[C@@H]1CC[C@@H]2O (stereo partly drawn) [Example 17, 10-[3,17β-dihydroxyestra-1,3,5(10)-trien-7α-yl]-2-(6,6,7,7,7-pentafluoroheptyl)decanoic Acid] | 94 |  |
| C[C@]12CC[C@@H]3c4ccc(O)cc4C[C@@H](CCCCCCCCC(CCC(F)(F)C(F)(F)C(F)(F)C(F)(F)F)C(=O)O)[C@H]3[C@@H]1CC[C@@H]2O (stereo partly drawn) [Example 16, 10-[3,17β-dihydroxyestra-1,3,5(10)-trien-7α-yl]-2-(3,3,4,4,5,5,6,6,6-nonafluorohexyl)decanoic Acid] | 98 |  |
| C[C@]12CC[C@@H]3c4ccc(O)cc4C[C@@H](CCCCCCCC[C@@H](CCCC(F)(F)C(F)(F)C(F)(F)C(F)(F)F)C(=O)O)[C@H]3[C@@H]1CC[C@@H]2O [Example 38, (2S)-10-(3,17β-dihydroxyestra-1,3,5(10)-trien-7α-yl)-2-(4,4,5,5,6,6,7,7,7-nonafluoroheptyl)decanoic Acid] | 100 |  |
| C[C@]12CC[C@@H]3c4ccc(O)cc4C[C@@H](CCCCCCCCCC(CCC(F)(F)C(F)(F)C(F)(F)C(F)(F)F)C(=O)O)[C@H]3[C@@H]1CC[C@@H]2O (stereo partly drawn) [Example 19, 11-[3,17β-dihydroxyestra-1,3,5(10)-trien-7α-yl]-2-(3,3,4,4,5,5,6,6,6-nonafluorohexyl)undecanoic Acid] | 92 |  |
| O=C(O)C(CCCCCCCCCCc1c(-c2ccc(O)cc2F)ccc2cc(O)ccc12)CCCC(F)(F)C(F)(F)F (centres unmarked) [Example 31, 12-[2-(2-fluoro-4-hydroxyphenyl)-6-hydroxynaphth-1-yl]-2-(4,4,5,5,5-pentafluoropentyl)dodecanoic Acid] | 75 |  |
| C[C@]12C[C@H](CCCCCCCCCC(CCCC(F)(F)C(F)(F)C(F)(F)C(F)(F)F)C(=O)O)[C@@H]3c4ccc(O)cc4CC[C@H]3[C@@H]1CC[C@@H]2O (stereo partly drawn) [Example 25, 11-(3,17β-dihydroxyestra-1,3,5(10)-trien-11β-yl)-2-(4,4,5,5,6,6,7,7,7-nonafluoroheptyl)undecanoic Acid] | 93 |  |
| C[C@]12CC[C@@H]3c4ccc(O)cc4C[C@@H](CCCCCCCCC(CCCC(F)(F)C(F)(F)F)C(=O)O)[C@H]3[C@@H]1CC[C@@H]2O (stereo partly drawn) [Example 14, 10-[3,17β-dihydroxyestra-1,3,5(10)-trien-7α-yl]-2-(4,4,5,5,5-pentafluoropentyl)decanoic Acid] | 87 |  |
| C[C@]12CC[C@@H]3c4ccc(O)cc4C[C@@H](CCCCCCCCCC(CCCC(F)(F)C(F)(F)C(F)(F)C(F)(F)F)C(=O)O)[C@H]3[C@@H]1CC[C@@H]2O (stereo partly drawn) [Example 18, 11-[3,17β-dihydroxyestra-1,3,5(10)-trien-7α-yl]-2-(4,4,5,5,6,6,7,7,7-nonafluoroheptyl)undecanoic Acid] | 85 |  |
| C[C@]12C[C@H](CCCCCCCCC(CCCCCC(F)(F)C(F)(F)F)C(=O)O)[C@@H]3c4ccc(O)cc4CC[C@H]3[C@@H]1CC[C@@H]2O (stereo partly drawn) [Example 12, 10-[3,17β-dihydroxyestra-1,3,5(10)-trien-11β-yl]-2-(6,6,7,7,7-pentafluoroheptyl)decanoic Acid] | 97 |  |
| C[C@]12C[C@H](CCCCCCCCC(CCCCCC(F)(F)C(F)(F)F)C(=O)O)[C@@H]3c4ccc(O)cc4CC[C@H]3[C@@H]1CC[C@@H]2O (stereo partly drawn) [Example 26, 10-(3,17β-dihydroxyestra-1,3,5(10)-trien-11β-yl)-2-(6,6,7,7,7-pentafluoroheptyl)decanoic Acid] |  | Inhibition (%) (10 mg/kg): 96% |
| C[C@]1(c2ccc(O)cc2)CCc2cc(O)ccc2[C@H]1CCCCCCCCC[S+]([O-])CCCC(F)(F)C(F)(F)F (some centres unmarked) [ZM189154, reference compound] |  | Inhibition (%): 42% |
| O=C(O)C(CCCCCCCCCCc1c(-c2ccc(O)c(F)c2)ccc2cc(O)ccc12)CCCC(F)(F)C(F)(F)F (centres unmarked) [Example 33, 12-[2-(3-fluoro-4-hydroxyphenyl)-6-hydroxynaphth-1-yl]-2-(4,4,5,5,5-pentafluoropentyl)dodecanoic Acid] | 64 |  |
| C[C@]1(c2ccc(O)cc2)CCc2cc(O)ccc2C1CCCCCCCCC(CCCC(F)(F)C(F)(F)F)C(=O)O (mixture of isomers) [Example 5, 10-[(1RS, 2RS)-6-hydroxy-2-(4-hydroxyphenyl)-2-methyl-1,2,3,4-tetrahydro-1-naphthyl]-2-(4,4,5,5,5-pentafluoropentyl)decanoic Acid] | 67 |  |
| C[C@]12CC[C@@H]3c4ccc(O)cc4C[C@@H](CCCCCCCCC(CCCC(F)(F)C(F)(F)C(F)(F)C(F)(F)F)C(=O)O)[C@H]3[C@@H]1CC[C@@H]2O (stereo partly drawn) [Example 15, 10-[3,17β-dihydroxyestra-1,3,5(10)-trien-7α-yl]-2-(4,4,5,5,6,6,7,7,7-nonafluoroheptyl)decanoic Acid] | 96 |  |
| C[C@]12C[C@H](CCCCCCCCC(CCCC(F)(F)C(F)(F)C(F)(F)C(F)(F)F)C(=O)O)[C@@H]3c4ccc(O)cc4CC[C@H]3[C@@H]1CC[C@@H]2O (stereo partly drawn) [Example 22, 10-(3,17β-dihydroxyestra-1,3,5(10)-trien-11β-yl)-2-(4,4,5,5,6,6,7,7,7-nonafluoroheptyl)decanoic Acid] | 98 |  |
| CCc1cc(O)ccc1-c1ccc2cc(O)ccc2c1CCCCCCCCCCC(CCCC(F)(F)C(F)(F)F)C(=O)O (centres unmarked) [Example 30, 12-[2-(2-ethyl-4-hydroxyphenyl)-6-hydroxynaphth-1-yl]-2-(4,4,5,5,5-pentafluoropentyl)dodecanoic Acid] | 58 |  |
| C[C@]12C[C@H](CCCCCCCCC(CCCC(F)(F)C(F)(F)F)C(=O)O)[C@@H]3c4ccc(O)cc4CC[C@H]3[C@@H]1CC[C@@H]2O (stereo partly drawn) [Example 21, 10-(3,17β-dihydroxyestra-1,3,5(10)-trien-11β-yl)-2-(4,4,5,5,5-pentafluoropentyl)decanoic Acid] | 99 |  |
